Results reported in PubChem BioAssay (NCI).
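Test compounds were applied to cells in 96-well plates for 48 hours at 5 doses. TGI denotes the concentration required for complete inhibition of growth.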

Legend:
Assay in all cases: NCI anticancer screen, dose series, 48 h
A498 renal = test system: A498 renal
SN12C renal = test system: SN12C renal
UACC-257 melanoma = test system: UACC-257 melanoma
SK-MEL-28 melanoma = test system: SK-MEL-28 melanoma
U251 CNS = test system: U251 CNS
SK-OV-3 ovarian = test system: SK-OV-3 ovarian
786-0 renal = test system: 786-0 renal
CCRF-CEM leukemia = test system: CCRF-CEM leukemia
NCI-H23 lung = test system: NCI-H23 lung
OVCAR-4 ovarian = test system: OVCAR-4 ovarian
HOP-62 NSCLC = test system: HOP-62 NSCLC
SR leukemia = test system: SR leukemia
BT-549 breast = test system: BT-549 breast
DU-145 prostate = test system: DU-145 prostate
SK-MEL-5 melanoma = test system: SK-MEL-5 melanoma
NCI-H226 lung = test system: NCI-H226 lung
HCC-2998 colon = test system: HCC-2998 colon
MDA-MB-435 = test system: MDA-MB-435
MCF7 breast = test system: MCF7 breast
MDA-MB-231 breast = test system: MDA-MB-231 breast

Row | Structure (SMILES) | TGI (A498 renal) [µM] | TGI (SN12C renal) [µM] | TGI (UACC-257 melanoma) [µM] | TGI (SK-MEL-28 melanoma) [µM] | TGI (U251 CNS) [µM] | TGI (SK-OV-3 ovarian) [µM] | TGI (786-0 renal) [µM] | TGI (CCRF-CEM leukemia) [µM] | TGI (NCI-H23 lung) [µM] | TGI (OVCAR-4 ovarian) [µM] | TGI (HOP-62 NSCLC) [µM] | TGI (SR leukemia) [µM] | TGI (BT-549 breast) [µM] | TGI (DU-145 prostate) [µM] | TGI (SK-MEL-5 melanoma) [µM] | TGI (NCI-H226 lung) [µM] | TGI (HCC-2998 colon) [µM] | TGI (MDA-MB-435) [µM] | TGI (MCF7 breast) [µM] | TGI (MDA-MB-231 breast) [µM]
1 | COC(=O)C1(C(=O)OC)N=C(C)OC1c1ccccn1 (centres undefined) | > 100 | > 100 | > 100 | > 100 | > 100 | > 100 | > 100 | > 100 | > 100 | > 100 | > 100 | > 100 | > 100 | > 100 | > 100 | > 100 | > 100 | > 100 | > 100 | 
2 | CCOC(=O)/C(N=Nc1ccc(-n2c(C)nc3ccc(Br)cc3c2=O)cc1)=C(/C)O | > 100 | > 100 | > 100 | > 100 | > 100 | > 100 | > 100 | > 100 | > 100 |  | > 100 | > 100 | > 100 | > 100 | 31.9 | > 100 |  | > 100 | > 100 | > 100
3 | COc1cc2c(cc1OC)CN1CCCc3cc(OC)c(OC)cc3C1C2 (centres undefined) |  | > 100 | > 100 | > 100 | > 100 | > 100 | > 100 | > 100 | > 100 | > 100 | > 100 |  | > 100 | > 100 | > 100 | 96.1 | > 100 | 47.5 | 95.2 | > 100
4 | COc1cc(OC)c2c(=O)c(OC)c(-c3ccc4c(c3)OCO4)oc2c1OC | > 100 | > 100 | > 100 | > 100 | > 100 | > 100 | > 100 | 83.5 | > 100 |  | > 100 |  | > 100 | > 100 | 89.8 | > 100 | > 100 | > 100 | > 100 | > 100
5 | O=C(O)CCNC(=O)c1cc(N(CCBr)CCBr)c([N+](=O)[O-])cc1[N+](=O)[O-] | > 100 | > 100 | > 100 | > 100 | > 100 | > 100 | > 100 | > 100 | > 100 | > 100 | > 100 | > 100 | > 100 |  | > 100 | > 100 | > 100 | > 100 | > 100 | > 100
6 | COC(=O)c1ccc(NCc2c(O)ccc(O)c2Br)cc1Cl | > 100 | 25.7 | 83.8 | 30.7 | 30.4 | > 100 | 32.6 | > 100 | 32.9 | 44.2 |  |  | 24.7 | 30.4 | 34.6 | > 100 | 39.4 | 26.5 | 32.2 | 29.4
7 | COC(=O)c1c2c(cc3c1CC1(C3)Cc3cc4c(c(C(C)=O)c3C1)CCC4)C=CC2 (centres undefined) | > 31.6 | > 31.6 | > 31.6 | > 31.6 | > 31.6 |  | > 31.6 | > 31.6 | > 31.6 | > 31.6 | > 31.6 | > 31.6 | > 31.6 | > 31.6 | > 31.6 | > 31.6 |  | > 31.6 | > 31.6 | > 31.6
8 | COc1ccc(/C=C/C(=N/NC(=O)N/N=C(/C=C/c2ccc(OC)cc2)C(C)(C)CN2CCCCC2)C(C)(C)CN2CCCCC2)cc1 | 3.73 | 5.83 | 3.31 | 2.92 | 3.31 | 3.49 | 3.15 | 3.39 | > 10 | 3.96 | 3.93 | 0.679 | 3.58 | > 10 | 3.01 | 3.02 | 3.42 |  | 6.26 | 
9 | Nn1c(CCCCCCCCc2nnc(COc3ccccc3)n2N)nnc1COc1ccccc1 | > 100 | > 100 | > 100 | > 100 | > 100 | > 100 | > 100 |  | > 100 | > 100 | > 100 |  | > 100 | > 100 | > 100 | > 100 | > 100 | > 100 | > 100 | > 100
10 | O=c1oc2ccccc2c(O)c1/C=N/C(=S)NCc1ccccc1 |  | > 100 | > 100 | > 100 | > 100 | > 100 | > 100 |  | > 100 | > 100 | > 100 |  | 41.5 | > 100 | > 100 | > 100 | > 100 | > 100 | > 100 | > 100
11 | C[n+]1c2ccccc2n2c3ccccc3c(NCCc3ccccn3)c(C#N)c21 | 14 |  | 16.6 | 5.51 | 12.7 | 17.8 | 7.58 | 9.11 | 11 | 5.93 | 11.8 |  | > 23.3 | 7.01 |  | 16.6 | 1.24 | 4 | 2.97 | 6.83
12 | CC(C)(C)CNC(=O)NCn1cc(-c2ccccc2)nn1 |  | > 100 | > 100 | > 100 | > 100 |  | > 100 | > 100 | > 100 |  | > 100 | > 100 | > 100 | > 100 | > 100 | > 100 | > 100 |  | > 100 | > 100
13 | Cc1ccc(N=C2S/C(=C3/CCC=C3N3CCOCC3)N(c3ccc(Cl)cc3)C2=Nc2ccc(C)cc2)cc1 | > 100 | > 100 | > 100 | > 100 | > 100 |  | > 100 |  | > 100 |  | > 100 | > 100 | > 100 |  | > 100 | > 100 | > 100 |  | > 100 | > 100
